The numbers were not newly measured in publication PMC3618964 (Journal of medicinal chemistry, 2010), which cites them from elsewhere.

In general, Ki refers to the equilibrium dissociation constant of an inhibitor or competing ligand from its target.

The series deals with SaDHFR. As to conditions: read-out: Ki value (SaDHFR).

As to `CCc1nc(N)nc(N)c1C#CCc1cc(OC)ccc1OC` [Compound 9], the Ki was 9.9 nM.
